Assay results as given in the supplement of paper PMC11061612.

Columns and labels:
Test in all cases: combination Emax (second highest fraction inhibited in the dose matrix, 72 h); higher = more inhibition; extreme values may be limits of the assay
[1] = tested on: BT-474 (Breast Carcinoma)
Outline: (§1)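 Bliss excess equals the observed combination effect minus the expected value EA + EB − EA·EB, where EA and EB are the effects of each agent alone. Combination Emax is the second-highest inhibition within the matrix. Inhibition was scaled from CellTiter-Glo 2.0 luminescence, with 0 set by vehicle wells and 1 by blank wells, after 72 hours of two-drug dosing of cells plated in 1536-well plates.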

C32 (Melanoma) = tested on: C32 (Melanoma)
Outline: as §1

[2] = tested on: NCI-H1944 (Lung Adenocarcinoma)
Outline: as §1

[3] = tested on: NTERA-2-cl-D1 (Other Solid Carcinomas)
Outline: as §1

[4] = tested on: KNS-62 (Squamous Cell Lung Carcinoma)
Outline: as §1

[5] = tested on: SBC-5 (Small Cell Lung Carcinoma)
Outline: as §1

[6] = tested on: TK (B-Cell Non-Hodgkin's Lymphoma)
Outline: as §1

[7] = tested on: NCI-H2170 (Squamous Cell Lung Carcinoma)
Outline: as §1

[8] = tested on: NCI-H1648 (Lung Adenocarcinoma)
Outline: as §1

HT-144 (Melanoma) = tested on: HT-144 (Melanoma)
Outline: as §1

NCI-H2452 (Mesothelioma) = tested on: NCI-H2452 (Mesothelioma)
Outline: as §1

[9] = tested on: NCI-H1435 (Non-Small Cell Lung Carcinoma)
Outline: as §1

[10] = tested on: RS4-11 (B-Lymphoblastic Leukemia)
Outline: as §1

[11] = tested on: HT-1197 (Bladder Carcinoma)
Outline: as §1

[12] = tested on: NCI-H2009 (Lung Adenocarcinoma)
Outline: as §1

[13] = tested on: NCI-H1048 (Small Cell Lung Carcinoma)
Outline: as §1

[14] = tested on: L-363 (Plasma Cell Myeloma)
Outline: as §1

[15] = tested on: NCI-H835 (Other Solid Carcinomas)
Outline: as §1

[16] = tested on: BC-1 (B-Cell Non-Hodgkin's Lymphoma)
Outline: as §1

[17] = tested on: SNU-1 (Gastric Carcinoma)
Outline: as §1

Compound	combination Emax [1]	combination Emax (C32 (Melanoma))	combination Emax [2]	combination Emax [3]	combination Emax [4]	combination Emax [5]	combination Emax [6]	combination Emax [7]	combination Emax [8]	combination Emax (HT-144 (Melanoma))	combination Emax (NCI-H2452 (Mesothelioma))	combination Emax [9]	combination Emax [10]	combination Emax [11]	combination Emax [12]	combination Emax [13]	combination Emax [14]	combination Emax [15]	combination Emax [16]	combination Emax [17]
Cc1cc2ncnn2cc1Nc1ncc2c(n1)n(C1CCOCC1)c(=O)n2C [AZD7648] + CN(C)CCCOc1ccc(-c2ccc3ncc4c(c3c2)n(C2CCOCC2)c(=O)n4C)cn1 [AZD0156] (first compound max 10 µM, 7x7, partner max 1 µM)	0.234	0.195	0.29	0.484	0.235	0.224	0.204	0.335	0.508	0.218	0.42	0.226	0.246	0.194	0.14	0.407	0.393	0.36	0.634	0.193
Cc1cc2ncnn2cc1Nc1ncc2c(n1)n(C1CCOCC1)c(=O)n2C [AZD7648] + C=CCn1c(=O)c2cnc(Nc3ccc(N4CCN(C)CC4)cc3)nc2n1-c1cccc(C(C)(C)O)n1 [AZD1775] (first compound max 10 µM, partner max 1 µM)	0.324	0.434	0.583	0.476	0.314	0.359	0.895	0.741	0.774	0.611	0.663	0.355	0.952	0.521	0.566	0.747	0.979	0.69	0.997	0.628
COc1cc2ncnc(Nc3ccc(F)c(Cl)c3)c2cc1OCCCN1CCOCC1 [Gefitinib] + CC(C)n1c(=O)n(C)c2cnc3cc(F)c(-c4ccc(OCCCN5CCCCC5)nc4)cc3c21 [AZD1390] (first compound max 10 µM, 7x7, partner max 0.3 µM)	0.485	0.114	0.19	0.284	0.0888	0.0706	0.076	0.784	0.646	0.314	0.306	0.114	0.168	0.0774	0.119	0.0795	0.148	0.144	0.601	0.239
Cc1cc2ncnn2cc1Nc1ncc2c(n1)n(C1CCOCC1)c(=O)n2C [AZD7648] + CCN(CCO)CCCOc1ccc2c(Nc3cc(CC(=O)Nc4cccc(F)c4)[nH]n3)ncnc2c1 [AZD2811] (first compound max 10 µM, 7x7, partner max 1 µM)	0.237	0.279	0.415	0.554	0.326	0.39	0.281	0.696	0.547	0.327	0.497	0.288	0.968	0.291	0.335	0.706	0.413	0.36	0.871	0.239
COc1cc2c(cc1OCCCCCOc1cc3c(cc1OC)C(=O)N1C=C(C)C[C@H]1C=N3)N=C[C@@H]1CC(C)=CN1C2=O [SG3199] + O=C(c1cc(Cc2n[nH]c(=O)c3ccccc23)ccc1F)N1CCN(C(=O)C2CC2)CC1 [Olaparib] (first compound max 0.001 µM, 7x7, partner max 10 µM)	0.049	0.0494	0.192	0.457	0.0885	0.0814	0.184	0.228	0.129	0.232	0.155	0.107	0.591	0.166	0.144	0.387	0.0669	0.169	0.181	0.353
C[C@@H](c1ccc2nccn2c1)n1nnc2ncc(-c3cnn(C)c3)nc21 [Savolitinib] + CC1(C)CCC(CN2CCN(c3ccc(C(=O)NS(=O)(=O)c4ccc(NCC5CCOCC5)c([N+](=O)[O-])c4)c(Oc4cnc5[nH]ccc5c4)c3)CC2)=C(c2ccc(Cl)cc2)C1 [Venetoclax] (first compound max 1 µM, 7x7, partner max 1 µM)	0.0943	0.171	0.128	0.257	0.0888	0.33	0.907	0.162	0.153	0.117	0.174	0.177	1	0.173	0.204	0.178	0.0979	0.148	0.209	0.188
Cc1nc(Nc2ncc(C(=O)Nc3c(C)cccc3Cl)s2)cc(N2CCN(CCO)CC2)n1 [Dasatinib] + CC(=O)Nc1cccc(-n2c(=O)n(C3CC3)c(=O)c3c(Nc4ccc(I)cc4F)n(C)c(=O)c(C)c32)c1 [Trametinib] (first compound max 2 µM, 7x7, partner max 1 µM)	0.0101	0.984	0.65	0.504	0.564	0.409	0.145	0.537	0.876	0.703	0.804	0.42	0.236	0.554	0.916	0.144	0.146	0	0.418	0.475
C=CCn1c(=O)c2cnc(Nc3ccc(N4CCN(C)CC4)cc3)nc2n1-c1cccc(C(C)(C)O)n1 [AZD1775] + C1CN(CCC1(C(=O)N[C@@H](CCO)C2=CC=C(C=C2)Cl)N)C3=NC=NC4=C3C=CN4 [Capivasertib] (first compound max 3 µM, partner max 3 µM)	0.47	0.52	0.861	0.496	0.719	0.87	0.909	0.828	0.821	0.954	0.816	0.442	0.939	0.543	0.883	0.91	0.939	0.866	0.97	0.727
